US7718641B2, “Pyrrolo [3,4-H] isoquinoline compounds and methods for modulating gated ion channels” (Aros Pharma ApS, priority 2005, dated 2010)

Columns and labels:
[1] = molecular target: T1, hASIC1a (Homo sapiens, UniProt P78348); test: Whole-cell patch clamp of HEK293 cells expressing homomeric hASIC1a; type: cell-based; parameters: expressed in transfected cells; host or cells: HEK293; details: 10 μM, HEK293, -60 mV, pH 7.4 to pH 6.5 for 5 sec, n=3
T1 sequence (P78348 1-528): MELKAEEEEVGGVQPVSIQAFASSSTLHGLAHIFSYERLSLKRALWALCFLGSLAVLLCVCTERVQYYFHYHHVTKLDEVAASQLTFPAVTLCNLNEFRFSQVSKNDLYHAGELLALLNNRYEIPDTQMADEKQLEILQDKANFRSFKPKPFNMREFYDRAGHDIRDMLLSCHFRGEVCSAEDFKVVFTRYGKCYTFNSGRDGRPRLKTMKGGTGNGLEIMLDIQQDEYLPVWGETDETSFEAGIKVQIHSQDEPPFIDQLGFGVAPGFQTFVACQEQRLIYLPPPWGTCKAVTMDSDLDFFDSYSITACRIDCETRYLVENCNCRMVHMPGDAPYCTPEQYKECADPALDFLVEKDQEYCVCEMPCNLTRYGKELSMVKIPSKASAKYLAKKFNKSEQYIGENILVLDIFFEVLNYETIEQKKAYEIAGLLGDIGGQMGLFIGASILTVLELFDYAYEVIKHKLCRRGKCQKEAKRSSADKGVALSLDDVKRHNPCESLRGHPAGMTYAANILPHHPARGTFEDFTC
Protocol: HEK293 cells were transfected either with hASIC1a alone or co-transfected with hASIC1a and hASIC3. Acid-induced inward currents were recorded in the presence and absence of compound A (10 μM) using the whole-cell configuration of the patch-clamp method (voltage clamp mode).
(§1) All experiments are performed at room temperature (20-25° C.) in voltage clamp using conventional whole cell patch clamp methods (Neher, E., et al. (1978) Pfluegers Arch 375:219-228).
Coverslips with the cells are transferred to a 15 μl experimental chamber mounted on the stage of an inverted microscope (IMT-2, Olympus) supplied with Nomarski optics. […] The cells are held at a holding voltage of −60 mV and at the start of each experiment the current is continuously measured for 45 s to ensure a stable baseline. […] Current amplitudes are measured at the peak of the responses, and effect of the compounds is calculated as the amplitude at compound equilibrium divided by the amplitude of the current evoked by the pulse just before the compound was included. […]
FIGS. 4A and 4B show response to acidic saline in the absence or presence of 10 μM of Compound A recorded from HEK293 cells expressing either hASIC1a alone or HEK293 cells co-expressing hASIC1a and hASIC3 [voltage clamped at −60 mV, extracellular solution surrounding cells was changed rapidly from pH 7.4 to pH 6.5 for 5 sec] […]

[2] = molecular target: T1, hASIC1a; test: Whole-cell voltage clamp of pH-evoked response of human ASIC1a stably transfected in CHO cells; type: cell-based; parameters: expressed in transfected cells; details: CHO cells
Protocol: FIG. 3 illustrates the inhibitory effect of Compound A on acid-evoked activation of human ASIC1a stably transfected in CHO cells. […] In this example, the size of the pH-evoked response was determined by measuring the area under the curve of the response (total charge transfer) and normalized to the control response. FIG. 3B depicts an example of an hASIC1a current (whole cell voltage clamp, −60 mV) evoked by a pH 6.8-buffered solution (from pH 7.4) in the presence or absence of Compound A (3 μM).
These endogenous proton-activated inward currents were recorded in the presence and absence of Compound J (1 μM) or Compound K (1 μM) using the whole cell configuration of the patch clamp method (voltage clamp mode).
as §1
Coverslips with the cells are transferred to a 15 μl experimental chamber mounted on the stage of an inverted microscope (IMT-2, Olympus) supplied with Nomarski optics. Cells are continuously superfused with extracellular saline at a rate of 2.5 ml/min. After giga-seal formation, the whole cell configuration is attained by suction. The cells are held at a holding voltage of −60 mV and at the start of each experiment the current is continuously measured for 45 s to ensure a stable baseline. Solutions of low pH (<7) are delivered to the chamber through a custom-made gravity-driven flowpipe, the tip of which is placed approximately 50 μm from the cell. Application is triggered when the tubing connected to the flowpipe is compressed by a valve controlled by the Pulse-software. Initially, low pH (in general, pH 6.5) is applied for 5 s every 60 s. The sample interval during application is 5501s. After stable responses are obtained, the extracellular saline as well as the low-pH solution are switched to solutions containing the compound to be tested. The compound is present until responses of a repeatable amplitude are achieved. Current amplitudes are measured at the peak of the responses, and effect of the compounds is calculated as the amplitude at compound equilibrium divided by the amplitude of the current evoked by the pulse just before the compound was included.
The following salt solutions are used: extracellular solution (mM): NaCl (140), KCl (4), CaCl2 (2), MgCl2 (4), HEPES (10, pH 7.4); intracellular solution (mM): KCl (120), KOH (31), MgCl2 (1.785), EGTA (10), HEPES (10, pH 7.2). In general, compounds for testing are dissolved in 50% DMSO at 500 fold the highest concentration used.
Similar findings are shown in FIG. 3 with the human ASIC1a stably transfected in CHO cells. FIG. 3A compares the dose-response relationship between Compound A and amiloride [determined by measuring the area under the curve of the response (total charge transfer) and normalized to the control response]. […] FIGS. 14A and 14B show similar results for Compounds J and K.

- effect on acid-induced inward current, hASIC1a alone [1]: effectively modulates the activity
- potency relative to amiloride ([2]; human ASIC1a pH-evoked response): about 100 fold
SMILES: COc1ccc(F)cc1-c1cc2c(c3c1CCN(C)C3)NC(=O)/C2=N/O [Compound A, 5-(5-fluoro-2-methoxyphenyl)-6,7,8,9-tetrahydro-3-(hydroxyimino)-8-methyl-1H-pyrrolo[3,2-h]isoquinoline-2(3H)-one]
- effect on size of human ASIC1a pH-evoked response (area under the curve, total charge transfer, normalized to control) ([2]; -60 mV, pH 6.8 from pH 7.4): reduce the human ASIC1a pH-evoked response in a dose-dependent manner
